These results are taken from patent US20040091479A1, “T-cell epitope of the papillomavirus l1 and e7 protein and use thereof in diagnostics and therapy” (priority 2000, published 2004).

Where a SMILES comes first, the peptide text is derived from it.

In data set [1] the test system is HPV18 CVLP-stimulated human T cells. The data set can be described thus: Restimulating HPV18 CVLP-stimulated T cells with BLCL presenting Q38, Q39, Q46 or Q47 (example 13). The class given is cell-based. The conditions noted are these: conclusion from FIG. 12 top right. As for the experimental part: In analogy with example 6, human T cells (4×10^5) derived from a non-HLA-typed blood donor were stimulated with HPV18L1ΔCDIE71-53DI CVLPs and HPV18L1ΔCDIE71-60DI CVLPs and harvested.
The T cells were then restimulated, at 37° C. and in 100 μl of medium, with in each case 1 μg of peptide Q38, Q39, Q46 or Q47/ml and 10^5 antigen-presenting cells (donor-identical BLCL) in the presence of 10 IU of IL2/ml. Cells which were only incubated with buffer served as the negative control while cells which were incubated with the HPV18 L1 peptide pool or the E7 peptide pool served as positive controls.
(§1) 1 μl of monensin was added after an hour. The cells were then incubated at 37° C. for a further 5 hours. After that, the cells were fixed and permeabilized and stained with α-human CD8/APC, with α-human CD4/PerCP and with α-human IFNγ/FITC. The labeling of the cells was examined in a FACScan Calibur and the results of the measurements were analyzed using Cellquest software.

The test system of data set [2] is CVLP-stimulated human CD4-positive T cells. Nature of the data set: Restimulating HPV18 CVLP-stimulated T cells with BLCL presenting HPV18 peptide pools (example 6). The class given is cell-based. The note with it: peptide common to two reactive HPV18 pools; CD4/IFNγ. On the procedure: Human T cells (4×10^5) from a non-HLA-typed blood donor were stimulated for 1 week with HPV18 L1ΔCDIE71-53DI CVLPs and HPV18 L1ΔACDIE71-60DI CVLPS, 800 U of human GM-CSF/ml and 500 U of human IL4/ml and also, for a further 5 weeks, with HPV18 L1ΔCDIE71-53DI CVLPs and HPV18 L1ΔCDIE71-6ODI CVLPs at 37° C., with the weekly addition of 1 μg of the CVLPs mixLure (ratio of the two constructs 1:1)/ml and 10^5 antigen-presenting cells (irradiated PMBC), and harvested.
The 20 mer peptides Q1 to 52 were assembled into peptide pools A to H and 1 to 7, respectively, in accordance with the matrix
The T cells were then restimulated, at 37° C. and in 100 μl of medium, with the peptide pools and 10^5 antigen-presenting cells (donor-identical BLCL) in the presence of 10 IU of IL2/ml. The quantities of the peptide pools which were used in this connection were such that. 1 μg/ml was added in the case of each individual peptide.
Cells which were only incubated with buffer served as the negative control while cells incubated with the HPV18 L1 peptide pool and the HPV18 E7 peptide pool, respectively, served as positive controls.
1 μl of monensin was added after an hour. The cells were then incubated at 37° C. for a further 5 hours. After that, the cells were fixed and permeabilized and stained with α-human CD8/APC, with α-human CD4/PerCP and with α-human IFNγ/FITC. The labeling of the cells was analyzed in a FACScan Calibur and the results of the measurements were analyzed using Cellquest software.

Data set [3] relates to CVLP-stimulated CD8-positive T cells. Nature of the data set: Restimulating HPV16 CVLP-stimulated T cells with BLCL presenting HPV16 peptide pools (example 10). Format: cell-based, human. The conditions noted are these: peptide common to two reactive HPV16 pools. As for the experimental part: (§2) In analogy with example 6, human T cells derived from a non-HLA-typed blood donor were stimulated with HPV16L1ΔC*E71-55 CVLPs and harvested.
(§3) The T cells were then restimulated, at 37° C. and in 100 μl of medium, with the peptide pools from example 7 and 10^5 antigen-presenting cells (donor-identical BLCL) in the presence of 10 IU of IL2/ml. Use was made, in this connection, of quantities of the peptide pools which was such that 1 μg/ml was added in the case of each individual peptide. Cells which were only incubated with buffer served as the negative control while cells which were incubated with HPV16 L1 peptide pool served as positive controls.
as §1

Data set [4] has as its system HPV18 L1 peptide pool-stimulated CD8-positive T cells. The data set can be described thus: Restimulating HPV18 L1 peptide-stimulated T cells with Q9-presenting BLCL (example 8). Format: cell-based, human. On the procedure:
In analogy with example 3, human T cells (4×10^5) derived from an HLA A24-positive donor were stimulated for 3 weeks with the HPV18 L1 peptide pool, at 37° C., with the weekly addition of 1 μg of each individual peptide/ml and 10^5 antigen-presenting cells (irradiated PMBC), and harvested.
The cells were then restimulated, at 37° C. in 100 μl of medium, with 10 μg of the HPV18 L1 peptide Q9/ml and 10^5 antigen-presenting cells (donor-identical BLCL) in the presence of 10 IU of IL2/ml. Cells which were only incubated with buffer served as the negative control.
1 μl of monensin (300 μM) was added after an hour. The cells were then incubated at 37° C. for a further 5 hours. After that, the cells were then fixed and permeabilized and stained with α-human CD8/APC, with α-human CD4/PerCP and with α-human IFNγ/FITC. The labeling of the cells was examined in a FACScan Calibur and the results of the measurements were analyzed using Cellquest software.

The subject of data set [5] is peptide-stimulated murine CD8-positive T cells. The data set can be described thus: Restimulating HPV18 peptide-stimulated murine T cells with peptide-presenting LKK cells (IFNγ FACScan). Format: cell-based, C3H mice. The conditions noted are these: for proportion of CD8-positive T cells reactive on the basis of IFNγ expression: 1 μg peptide/ml, LKK cells, T cells of HPV18 CVLP-inoculated C3H mice, FIG. 3, 4; for T cell epitope assignment: conclusion from FIG. 3, 4. On the procedure:
Murine T cells (4×10^5) derived from C3H mice inoculated with HPV18 L1ΔCDIE71-53DI CVLPs and HPV18 L1ΔCDIE71-6ODI CVLPs were stimulated for 5 weeks with HPV18 L1 or E7 peptide pools at 37° C., with the weekly addition of 1 μg of each individual peptide/ml and 10^5 antigen-presenting cells (irradiated splenocytes), and harvested. The cells were then restimulated, at 37° C. and in 100 μl of medium, with 1 μg of the peptides given on the X axis in FIG. 3/ml and 10^5 antigen-presenting cells (LKK) in the presence of 10 IU of IL2/ml. Cells which were only incubated with buffer served as the negative control.
1 μl of monensin (300 μm) was added after an hour. The cells were incubated at 37° C. for a further 5 hours. The cells were then fixed and permeabilized and stained with α-mouse CD8/PE, with α-mouse CD4/cychrome and with α-mouse interferony/FITC. The labeling of the cells was analyzed in a FACScan Calibur and the results of the measurement were analyzed using Cellquest software.

Data set [6] relates to RMA cells. Nature of the data set: 51Cr release: lysing HPV18 peptide-loaded RMA cells (example 17). The note with it: for T cell epitope assignment: conclusion from FIG. 16 upper part; for specific lysis of target cells (51Cr release): peptide-loaded RMA cells, effector:target 20, FIG. 16 upper part. The class given is cell-based, murine. As for the experimental part:
In analogy with example 4, RMA or LKK cells were radioactively labeled with ^51Cr and incubated with the peptides (Q43 and Q44 in the upper part of FIG. 16 and Q49 in the lower part of FIG. 16) which are plotted on the X axis. Cells without peptide served as negative controls. T cells which had previously been stimulated with the peptide pool were then added.
The lysis of the RMA cells or LKK cells by the T cells was measured by the release of the ^51Cr and calculated as described in example 4.

For data set [7], the system named is CVLP-stimulated T cells (CD4-positive). The data set can be described thus: Restimulating HPV16 CVLP-stimulated T cells with BLCL presenting pools or P39 (example 9; IFNγ and IL4). The class given is cell-based, human. The conditions noted are these: for T cell epitope assignment (TH2): peptide common to two reactive HPV16 pools, CD4/IL4. On the procedure:
as §2, §3, §1

Data set [8] relates to human T cells. The data set can be described thus: Summary of examples 3 to 18: epitopes recognized by human T cells. The conditions noted are these: Table 3, HPV16 peptides, species human; TC cytotoxic, TH T helper. Format: cell-based.
In data set [9] the test system is CVLP-stimulated CD8-positive T cells. Nature of the data set: Restimulating HPV16 CVLP-stimulated T cells with BLCL presenting HPV16 peptide pools (example 14). Format: cell-based, human. The conditions noted are these: peptide common to two reactive HPV16 pools; CD8/IFNγ. As for the experimental part: as §2
The T cells were then restimulated, at 37° C. and in 100 μl of medium, with the peptide pools from example 7 and 10^5 antigen-presenting cells (donor-identical BLCL) in the presence of 10 IU of IL2/ml. Use was made, in this connection, of quantities of the peptide pools which were such that 1 μg/ml was added in the case of each individual peptide. Cells which were only incubated with buffer served as the negative control, while cells which were incubated with the HPV16 L1 or E7 peptide pool served as positive controls.
as §1

For the compound `CC[C@H](C)[C@H](NC(=O)[C@H](C)NC(=O)[C@@H](NC(=O)[C@H](CO)NC(=O)[C@H](CCC(N)=O)NC(=O)[C@@H](NC(=O)[C@H](Cc1ccccc1)NC(=O)[C@H](CCCNC(=N)N)NC(=O)[C@@H](N)Cc1ccc(O)cc1)C(C)C)C(C)C)C(=O)N[C@H](C(=O)N[C@@H](CS)C(=O)N[C@@H](CCC(N)=O)C(=O)N[C@@H](CCCCN)C(=O)N[C@@H](CC(=O)O)C(=O)N[C@@H](C)C(=O)N[C@@H](C)C(=O)N1CCC[C@H]1C(=O)N[C@@H](C)C(=O)N[C@@H](CCC(=O)O)C(=O)N[C@@H](CC(N)=O)C(=O)O)[C@@H](C)O` [Q39], the “T cell epitope assignment (cytotoxic)” value in data set [1] is “contain cytotoxic T cell epitopes”.
The same measure, in the same setting: the result for `CC[C@H](C)[C@H](NC(=O)[C@H](CCC(=O)O)NC(=O)[C@H](CC(=O)O)NC(=O)[C@H](CC(N)=O)NC(=O)[C@H](CCC(=O)O)NC(=O)[C@H](CCC(=O)O)NC(=O)[C@H](CCC(=O)O)NC(=O)[C@@H](N)CO)C(=O)N[C@@H](CC(=O)O)C(=O)NCC(=O)N[C@H](C(=O)N[C@@H](CC(N)=O)C(=O)N[C@@H](Cc1c[nH]cn1)C(=O)N[C@@H](CCC(N)=O)C(=O)N[C@@H](Cc1c[nH]cn1)C(=O)N[C@@H](CC(C)C)C(=O)N1CCC[C@H]1C(=O)N[C@@H](C)C(=O)N[C@@H](CCCNC(=N)N)C(=O)N[C@@H](CCCNC(=N)N)C(=O)O)C(C)C` [Q47] (H-SEEENDEIDGVNHQHLPARR-OH; N-terminus and C-terminus assumed) reads “contain cytotoxic T cell epitopes”.
As for “GGNKQDIPKVSAYQYRVFRV [Q6, HPV18 L1 56-75]”, the “T cell epitope assignment” value in data set [2] is given as “contains a T helper epitope”.
With GLQYRVFRIHLPDPNKFGFP [P7], the “T cell epitope assignment” value in [3] is recorded as “contain a cytotoxic T cell epitope”.
Take “IYNPETQRL [HPV18 L1 90-98, contained in peptide Q9]”: in data set [4] (9mer within Q9, deduced from Q9 result and HLA A24 prediction), the “T cell epitope assignment” value is recorded as “HLA A24-restricted cytotoxic T cell epitope”.
Turning to “MALWRPSDNTVYLPPPSVAR [Q1, HPV18 L1 1-20]”, the “T cell epitope assignment” value in data set [2] was “contain T helper epitopes”.
On to “MHGPKATLQDIVLHLEPQNE [Q44, HPV18 E7 1-20]”, for which, in data set [5], the “proportion of CD8-positive T cells reactive on the basis of IFNγ expression” value (shortened to “proportion … of IFNγ expression”) is given as “brought about a restimulation” and the “T cell epitope assignment” value is reported as “contain H2k-restricted cytotoxic T cell epitopes”. Moreover, in [6], the “T cell epitope assignment” value was “H2b-restricted cytotoxic T cell epitopes” and the “specific lysis of target cells (51Cr release)” value is reported as “able to efficiently lyse”.
For “PPPGGTLEDTYRFVTSQAIA [P38, HPV16 L1 408-427]”, the “T cell epitope assignment (TH2)” value in data set [7] is “contains a TH2 epitope”. In addition, the Epitope type entry in data set [8] was “TH2”.
“PYDKLKFWNVDLKEKFSLDL [Q41, HPV18 L1 441-460]”: in [5], the “proportion … of IFNγ expression” value is “brought about a restimulation”. Also, the results for the “T cell epitope assignment” value in data set [5] and in data set [2] were “contain H2k-restricted cytotoxic T cell epitopes” and “contain T helper epitopes”, respectively.
In the case of “RFVTSQAIACQKHTPPAPKE [P39, HPV16 L1 419-438]”, in [7] (CD4-positive and IFNγ-positive, pools G and 5 and P39 alone), the “T cell epitope assignment (TH1)” value was “contains a T helper epitope”. Besides, the “proportion of CD4-positive and IFNγ-positive cells (TH1)” value in data set [7] (HPV16 pools or P39, donor-identical BLCL, FIG. 8 top) is on record as “very high”. Further, the “T cell epitope assignment (TH2)” value in data set [7] was “contains a TH2 epitope”. In data set [8], the Epitope type result was “TH1, TH2”.
For “SIYNPETQRLVWACAGVEIG [Q9, HPV18 L1 89-108]”, the “proportion … of IFNγ expression” value in [4] (10 μg Q9/ml, donor-identical BLCL, HLA A24-positive donor, FIG. 7) is “brought about a restimulation”. In [4] (conclusion from FIG. 7), the “T cell epitope assignment” value is given as “contains an HLA A24-restricted cytotoxic T cell epitope”.
With “VGHPYFPIKKPNNNKILVPK [P5, HPV16 L1 45-64]”, the “T cell epitope assignment” value in data set [9] and in data set [3] was “contain a cytotoxic T cell epitope” in each case.
For the compound “YLPPVPVSKVVSTDEYVART [P2, HPV16 L1 12-31]”, in data set [3], the “T cell epitope assignment” value is “contain a cytotoxic T cell epitope”.
As for “YPLGRKFLVQAGMHGPKATL [Q43, HPV18 L1 463-474 and E7 1-8]”, in [5], the “proportion … of IFNγ expression” value is listed as “brought about a restimulation” and the “T cell epitope assignment” value is on record as “contain H2k-restricted cytotoxic T cell epitopes”. In data set [6], the “T cell epitope assignment” value was “H2b-restricted cytotoxic T cell epitopes” and the “specific lysis of target cells (51Cr release)” value is given as “able to efficiently lyse”.
